According to patent publication US20250163066A1, “PROTACs of MALT1” (TEGID THERAPEUTICS, INC., priority 2022, published 2025):

Legend:
[1] = test system: IL-2 MALT1-dependent release in Jurkat cells; assay: cells; assay type: cell-based; details: Homo sapiens; Jurkat cells stimulated with antiCD3/antiCD28 for 24 h; IL-2 ELISA; read-out: EC50, IL-2 MALT1-dependent release inhibition
Protocol: Jurkat cells (ATCC, USA) (100,000 cells/well in a 96 well flat-bottom plate (Greiner, #655061) were cultured in RPMI 1640 supplemented with 10% FBS at 37° C., 5% CO2 in a humidified cell culture incubator for 0.5-1 h. Then 10 μl/well 15× compound (or DMSO) was added in duplicates. Cells were incubated with compound in a humidified cell culture incubator for 0.5-1 h. After the incubation, 10 μl/well of 15× human antiCD3 HIT3a antibody (BioLegend) together with 10 μl/well of 15× human antiCD28 antibody (Invitrogen) were added to stimulate Jurkat cells for 24 h. After 24 h of stimulation, supernatants were collected and IL-2 levels in supernatants were assessed using IL-2 ELISA kit (Vector-Best, Russia).

MALT1 = MALT1 (Homo sapiens (Human), UniProt Q9UDY8); assay: MALT1 enzymatic activity inhibition (fluorescence, Ac-LRSR-AMC substrate); assay type: biochemical; details: recombinant MALT1 1.5 ng/μl, Ac-LRSR-AMC 1 μM
Sequence of MALT1 (Q9UDY8 whole entry): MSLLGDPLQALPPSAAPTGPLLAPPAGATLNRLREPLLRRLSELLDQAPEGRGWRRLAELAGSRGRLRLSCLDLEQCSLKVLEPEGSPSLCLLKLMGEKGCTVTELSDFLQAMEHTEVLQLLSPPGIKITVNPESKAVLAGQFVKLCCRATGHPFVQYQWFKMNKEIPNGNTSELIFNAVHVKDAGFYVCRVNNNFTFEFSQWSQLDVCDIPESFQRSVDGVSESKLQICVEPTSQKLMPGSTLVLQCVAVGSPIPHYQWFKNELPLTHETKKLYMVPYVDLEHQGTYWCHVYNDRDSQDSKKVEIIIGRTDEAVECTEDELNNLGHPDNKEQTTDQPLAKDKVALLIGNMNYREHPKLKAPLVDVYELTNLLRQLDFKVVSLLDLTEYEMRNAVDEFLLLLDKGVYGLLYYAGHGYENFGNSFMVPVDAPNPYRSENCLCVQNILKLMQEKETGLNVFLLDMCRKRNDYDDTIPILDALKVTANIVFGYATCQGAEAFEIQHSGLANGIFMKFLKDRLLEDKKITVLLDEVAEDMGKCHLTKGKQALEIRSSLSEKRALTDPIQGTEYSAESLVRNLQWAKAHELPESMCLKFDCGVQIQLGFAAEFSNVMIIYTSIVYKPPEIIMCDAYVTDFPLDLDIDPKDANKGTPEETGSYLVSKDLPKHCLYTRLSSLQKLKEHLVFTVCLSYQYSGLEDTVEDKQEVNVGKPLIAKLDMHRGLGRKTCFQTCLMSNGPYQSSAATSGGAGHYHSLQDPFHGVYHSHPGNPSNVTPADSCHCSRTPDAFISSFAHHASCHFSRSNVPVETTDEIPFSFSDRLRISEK
Outline: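 Recombinant human MALT1 (1.5 ng/μl final) preincubated 10 min at rt with compounds in 50 mM HEPES pH 7.2-7.4, 100 mM NaCl, 900 mM sodium citrate, 10 mM DTT; 1 μM Ac-LRSR-AMC then added. AMC fluorescence read at start and after 30 min 37 °C plus 30 min rt; difference gives signal, % inhibition fitted to IC50.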

Row | SMILES | EC50 [1] [µM] | EC50 (MALT1) [µM]
1 | O=C1CCC(N2Cc3cc(N4CCN(Cc5nc(-c6ncc(NC(=O)Nc7cnc8ccnn8c7C7CCCC7)cc6Cl)no5)CC4)ccc3C2=O)C(=O)N1 (stereo not drawn) [Compound 56, 1-[5-chloro-6-[5-[[4-[2-(2,6-dioxo-3-piperidyl)-1-oxo-isoindolin-5-yl]piperazin-1-yl]methyl]-1,2,4-oxadiazol-3-yl]-3-pyridyl]-3-(7-cyclopentylpyrazolo[1,5-a]pyrimidin-6-yl)urea] | < 0.5 | ≤ 0.2
2 | Cc1cc(NC(=O)Nc2cnc3ccnn3c2C2CCCC2)cnc1-c1noc(CCCCN2CCN(c3cc4c(cc3F)C(=O)N(C3CCC(=O)NC3=O)C4=O)CC2)n1 (stereo not drawn) [Compound 57, 1-(7-cyclopentylpyrazolo[1,5-a]pyrimidin-6-yl)-3-[6-[5-[4-[4-[2-(2,6-dioxo-3-piperidyl)-6-fluoro-1,3-dioxo-isoindolin-5-yl]piperazin-1-yl]butyl]-1,2,4-oxadiazol-3-yl]-5-methyl-3-pyridyl]urea] | 1 to 5 | ≤ 0.2
3 | O=C1CCC(N2Cc3cc(N4CCN(C(=O)CCCCc5nc(-c6ncc(NC(=O)Nc7cnc8ccnn8c7C7CCCC7)cc6Cl)no5)CC4)ccc3C2=O)C(=O)N1 (stereo not drawn) [Compound 76, 1-[5-chloro-6-[5-[5-[4-[2-(2,6-dioxo-3-piperidyl)-1-oxo-isoindolin-5-yl]piperazin-1-yl]-5-oxo-pentyl]-1,2,4-oxadiazol-3-yl]-3-pyridyl]-3-(7-cyclopentylpyrazolo[1,5-a]pyrimidin-6-yl)urea] | 0.5 to 1 | ≤ 0.2
4 | O=C1CCC(N2Cc3cc(N4CCN(CCCCCCc5nc(-c6ncc(NC(=O)Nc7cnc8ccnn8c7C7CCCC7)cc6Cl)no5)CC4)ccc3C2=O)C(=O)N1 (stereo not drawn) [Compound 78, 1-[5-chloro-6-[5-[6-[4-[2-(2,6-dioxo-3-piperidyl)-1-oxo-isoindolin-5-yl]piperazin-1-yl]hexyl]-1,2,4-oxadiazol-3-yl]-3-pyridyl]-3-(7-cyclopentylpyrazolo[1,5-a]pyrimidin-6-yl)urea] | < 0.5 | ≤ 0.2
5 | O=C1CCC(N2Cc3cc(N4CCN(CCCCCc5nc(-c6ncc(NC(=O)Nc7cnc8ccnn8c7C7CCCC7)cc6Cl)no5)CC4)ccc3C2=O)C(=O)N1 (stereo not drawn) [Compound 79, 1-[5-chloro-6-[5-[5-[4-[2-(2,6-dioxo-3-piperidyl)-1-oxo-isoindolin-5-yl]piperazin-1-yl]pentyl]-1,2,4-oxadiazol-3-yl]-3-pyridyl]-3-(7-cyclopentylpyrazolo[1,5-a]pyrimidin-6-yl)urea] | < 0.5 | ≤ 0.2
6 | Cc1cc2ncc(NC(=O)Nc3cnc(-c4noc(CCCCCC(=O)N5CCN(c6ccc7c(c6)CN(C6CCC(=O)NC6=O)C7=O)CC5)n4)c(C)c3)c(C3CCCC3)n2n1 (stereo not drawn) [Compound 82, 1-(7-cyclopentyl-2-methyl-pyrazolo[1,5-a]pyrimidin-6-yl)-3-[6-[5-[6-[4-[2-(2,6-dioxo-3-piperidyl)-1-oxo-isoindolin-5-yl]piperazin-1-yl]-6-oxo-hexyl]-1,2,4-oxadiazol-3-yl]-5-methyl-3-pyridyl]urea] | 1 to 5 | ≤ 0.2
7 | Cc1cc2ncc(NC(=O)Nc3cnc(-c4noc(CCCCC(=O)N5CCN(c6ccc7c(c6)CN(C6CCC(=O)NC6=O)C7=O)CC5)n4)c(C)c3)c(C3CCCO3)n2n1 (stereo not drawn) [Compound 84, 1-[6-[5-[5-[4-[2-(2,6-dioxo-3-piperidyl)-1-oxo-isoindolin-5-yl]piperazin-1-yl]-5-oxo-pentyl]-1,2,4-oxadiazol-3-yl]-5-methyl-3-pyridyl]-3-(2-methyl-7-tetrahydrofuran-2-yl-pyrazolo[1,5-a]pyrimidin-6-yl)urea] | 1 to 5 | ≤ 0.2
8 | Cc1cc(NC(=O)Nc2cnc3ccnn3c2C(C)C)cnc1-c1noc(CCCCC(=O)N2CCN(c3ccc4c(c3)CN(C3CCC(=O)NC3=O)C4=O)CC2)n1 (stereo not drawn) [Compound 86, 1-[6-[5-[5-[4-[2-(2,6-dioxo-3-piperidyl)-1-oxo-isoindolin-5-yl]piperazin-1-yl]-5-oxo-pentyl]-1,2,4-oxadiazol-3-yl]-5-methyl-3-pyridyl]-3-(7-isopropylpyrazolo[1,5-a]pyrimidin-6-yl)urea] | 1 to 5 | ≤ 0.2
9 | Cc1cc(NC(=O)Nc2cnc3ccnn3c2C(C)C)cnc1-c1noc(CCCCCN2CCN(c3ccc4c(c3)CN(C3CCC(=O)NC3=O)C4=O)CC2)n1 (stereo not drawn) [Compound 87, 1-[6-[5-[5-[4-[2-(2,6-dioxo-3-piperidyl)-1-oxo-isoindolin-5-yl]piperazin-1-yl]pentyl]-1,2,4-oxadiazol-3-yl]-5-methyl-3-pyridyl]-3-(7-isopropylpyrazolo[1,5-a]pyrimidin-6-yl)urea] | < 0.5 | ≤ 0.2
10 | Cc1cc(NC(=O)Nc2cnc3ccnn3c2C2CCCC2)cnc1-c1noc(CCCCCN2CCN(c3ccc4c(c3)CN(C3CCC(=O)N(COC(=O)C(C)(C)C)C3=O)C4=O)CC2)n1 (stereo not drawn) [Compound 88, [3-[5-[4-[5-[3-[5-[(7-cyclopentylpyrazolo[1,5-a]pyrimidin-6-yl)carbamoylamino]-3-methyl-2-pyridyl]-1,2,4-oxadiazol-5-yl]pentyl]piperazin-1-yl]-1-oxo-isoindolin-2-yl]-2,6-dioxo-1-piperidyl]methyl 2,2-dimethylpropanoate] | 1 to 5 | ≤ 0.2
11 | Cc1cc(NC(=O)Nc2cnc3ccnn3c2C(C)C)cnc1-c1noc(CCCC(=O)N2CCN(c3ccc4c(c3)CN(C3CCC(=O)NC3=O)C4=O)CC2)n1 (stereo not drawn) [Compound 89, 1-[6-[5-[4-[4-[2-(2,6-dioxo-3-piperidyl)-1-oxo-isoindolin-5-yl]piperazin-1-yl]-4-oxo-butyl]-1,2,4-oxadiazol-3-yl]-5-methyl-3-pyridyl]-3-(7-isopropylpyrazolo[1,5-a]pyrimidin-6-yl)urea] | < 0.5 | ≤ 0.2
12 | Cc1cc(NC(=O)Nc2cnc3ccnn3c2C(C)C)cnc1-c1noc(CCCCCC(=O)N2CCN(c3ccc4c(c3)CN(C3CCC(=O)NC3=O)C4=O)CC2)n1 (stereo not drawn) [Compound 91, 1-[6-[5-[6-[4-[2-(2,6-dioxo-3-piperidyl)-1-oxo-isoindolin-5-yl]piperazin-1-yl]-6-oxo-hexyl]-1,2,4-oxadiazol-3-yl]-5-methyl-3-pyridyl]-3-(7-isopropylpyrazolo[1,5-a]pyrimidin-6-yl)urea] | 0.5 to 1 | ≤ 0.2
13 | Cc1cc(NC(=O)Nc2cnc3ccnn3c2C(C)C)cnc1-c1noc(CCCCCCN2CCN(c3ccc4c(c3)CN(C3CCC(=O)NC3=O)C4=O)CC2)n1 (stereo not drawn) [Compound 92, 1-[6-[5-[6-[4-[2-(2,6-dioxo-3-piperidyl)-1-oxo-isoindolin-5-yl]piperazin-1-yl]hexyl]-1,2,4-oxadiazol-3-yl]-5-methyl-3-pyridyl]-3-(7-isopropylpyrazolo[1,5-a]pyrimidin-6-yl)urea] | < 0.5 | ≤ 0.2
14 | CC(C)c1c(NC(=O)Nc2cnc(-c3noc(CCCCCCN4CCN(c5ccc6c(c5)CN(C5CCC(=O)NC5=O)C6=O)CC4)n3)c(Cl)c2)cnc2ccnn12 (stereo not drawn) [Compound 93, 1-[5-chloro-6-[5-[6-[4-[2-(2,6-dioxo-3-piperidyl)-1-oxo-isoindolin-5-yl]piperazin-1-yl]hexyl]-1,2,4-oxadiazol-3-yl]-3-pyridyl]-3-(7-isopropylpyrazolo[1,5-a]pyrimidin-6-yl)urea] | < 0.5 | ≤ 0.2
15 | O=C1CCC(N2Cc3cc(N4CCN(C(=O)CCCCc5nc(-c6ncc(NC(=O)Nc7cnc8ccnn8c7C7CCCC7)cc6C(F)(F)F)no5)CC4)ccc3C2=O)C(=O)N1 (stereo not drawn) [Compound 96, 1-(7-cyclopentylpyrazolo[1,5-a]pyrimidin-6-yl)-3-[6-[5-[5-[4-[2-(2,6-dioxo-3-piperidyl)-1-oxo-isoindolin-5-yl]piperazin-1-yl]-5-oxo-pentyl]-1,2,4-oxadiazol-3-yl]-5-(trifluoromethyl)-3-pyridyl]urea] | < 0.5 | ≤ 0.2
16 | O=C1CCC(N2Cc3cc(N4CCN(C(=O)CCCCCc5nc(-c6ncc(NC(=O)Nc7cnc8ccnn8c7C7CCCC7)cc6C(F)(F)F)no5)CC4)ccc3C2=O)C(=O)N1 (stereo not drawn) [Compound 104, 1-(7-cyclopentylpyrazolo[1,5-a]pyrimidin-6-yl)-3-[6-[5-[6-[4-[2-(2,6-dioxo-3-piperidyl)-1-oxo-isoindolin-5-yl]piperazin-1-yl]-6-oxo-hexyl]-1,2,4-oxadiazol-3-yl]-5-(trifluoromethyl)-3-pyridyl]urea] | < 0.5 | ≤ 0.2
17 | O=C1CCC(N2Cc3cc(N4CCN(C(=O)CCCc5nc(-c6ncc(NC(=O)Nc7cnc8ccnn8c7C7CCCC7)cc6C(F)(F)F)no5)CC4)ccc3C2=O)C(=O)N1 (stereo not drawn) [Compound 106, 1-(7-cyclopentylpyrazolo[1,5-a]pyrimidin-6-yl)-3-[6-[5-[4-[4-[2-(2,6-dioxo-3-piperidyl)-1-oxo-isoindolin-5-yl]piperazin-1-yl]-4-oxo-butyl]-1,2,4-oxadiazol-3-yl]-5-(trifluoromethyl)-3-pyridyl]urea] | < 0.5 | ≤ 0.2
18 | Cc1cc(NC(=O)Nc2cnc3ccnn3c2C2CCCCC2)cnc1-c1noc(CCCCCC(=O)N2CCN(c3ccc4c(c3)CN(C3CCC(=O)NC3=O)C4=O)CC2)n1 (stereo not drawn) [Compound 107, 1-(7-cyclohexylpyrazolo[1,5-a]pyrimidin-6-yl)-3-[6-[5-[6-[4-[2-(2,6-dioxo-3-piperidyl)-1-oxo-isoindolin-5-yl]piperazin-1-yl]-6-oxo-hexyl]-1,2,4-oxadiazol-3-yl]-5-methyl-3-pyridyl]urea] | 1 to 5 | ≤ 0.2
